Data reported in patent publication US20110230478A1 (Bayer ScienceCrop AG, priority 2008, published 2011).
Where a name gives a salt, the structure may show the parent alone. Read-outs that look alike come from different tables or passages of the source.

Assay: logP by HPLC on reversed-phase columns (C 18), EEC Directive 79/831 Annex V.A8
Type: physicochemical
Conditions: for chromatographic logP: reversed-phase HPLC column (C 18)
[1] = values marked [b], footnote not given
[2] = pH 2.3, pH 2.3, 0.1% aqueous phosphoric acid and acetonitrile, read-out: logP [a]
[3] = method marker [a], footnote not given
[4] = method marker [b], footnote not given, compound 68 value matches logP (pH 2.3)
[5] = method marker [c], footnote not given

Compound: COCC(C)Nc1nc(Nc2ccc(NC(C)=O)c(OC)c2)ncc1Br (racemic) [Example 125]
- logP [1]: 1.46[b]

Compound: COCC(C)Nc1nc(Nc2ccc(C(=O)Nc3ccccc3)cc2)ncc1Br (racemic) [Example 126]
- logP [1]: 1.92[b]

Compound: CNC(=O)c1ccc(Nc2ncc(Br)c(NC(C)COC)n2)cc1 (racemic) [Example 127]
- logP [1]: 1.46[b]

Compound: C=CCNC(=O)c1ccc(Nc2ncc(Br)c(NC(C)COC)n2)cc1 (racemic) [Example 128]
- logP [1]: 1.75[b]

Compound: CCOC(=O)Nc1cccc(Nc2ncc(Br)c(NC(C)COC)n2)c1 (racemic) [Example 129]
- logP [1]: 1.87[b]

Compound: CNC(=O)Oc1cccc(Nc2ncc(Br)c(NC(C)COC)n2)c1 (racemic) [Example 130]
- logP [1]: 1.56[b]

Compound: COCC(C)Nc1nc(Nc2cccc(NC=O)c2)ncc1Br (racemic) [Example 132]
- logP [1]: 1.43[b]

Compound: CNC(=O)c1ccc(Nc2ncc(Cl)c(NC(C)COC)n2)cc1 (racemic) [Example 135]
- logP [1]: 1.38[b]

Compound: COCC(C)Nc1nc(Nc2ccc(C(=O)NC(C)(C)C)cc2)ncc1Cl (racemic) [Example 137]
- logP [1]: 2.06[b]

Compound: COCC(C)Nc1nc(Nc2ccc(NC=O)cc2)ncc1Cl (racemic) [Example 138]
- logP [1]: 1.28[b]

Compound: COCC(C)Nc1nc(Nc2ccc(NC(C)=O)c(OC)c2)ncc1Cl (racemic) [Example 140]
- logP [1]: 1.38[b]

Compound: COCC(C)Nc1nc(Nc2ccc(C(=O)Nc3ccccc3)cc2)ncc1Cl (racemic) [Example 141]
- logP [1]: 1.8[b]

Compound: CNC(=O)c1cccc(Nc2ncc(Cl)c(NC(C)COC)n2)c1 (racemic) [Example 142]
- logP [1]: 1.32[b]

Compound: CCOC(=O)Nc1cccc(Nc2ncc(Cl)c(NC(C)COC)n2)c1 (racemic) [Example 143]
- logP [1]: 1.78[b]

Compound: CNC(=O)Oc1cccc(Nc2ncc(Cl)c(NC(C)COC)n2)c1 (racemic) [Example 144]
- logP [1]: 1.48[b]

Compound: COCC(C)Nc1nc(Nc2ccc(S(C)(=O)=O)cc2)ncc1Cl (racemic) [Example 145]
- logP [1]: 1.85[b]

Compound: COCC(C)Nc1nc(Nc2ccc(NC(=O)C(C)(C)C)cc2)ncc1Cl (racemic) [Example 146]
- logP [1]: 1.78[b]

Compound: CN1CCN(Cc2cccc([N+](=O)[O-])c2)C1=O [1-methyl-3-(3-nitrobenzyl)imidazolidin-2-one]
- chromatographic logP [2]: 2.03

Compound: COCCNc1nc(Nc2cc(OC)c(OC)c(OC)c2)ncc1Cl [Example 1]
- logP [3]: 1.45[a];
- logP [4]: 1.45[b]

Compound: COCCNc1nc(Nc2cccc(Cl)c2)ncc1Cl [Example 2]
- logP [3]: 2.13[a];
- logP [4]: 2.13[b]

Compound: COCCNc1nc(Nc2ccccc2)ncc1Cl [Example 3]
- logP [3]: 1.41[a]

Compound: COCCNc1nc(Nc2cc(OC)cc(OC)c2)ncc1Cl [Example 4]
- logP [3]: 1.67[a]

Compound: COCCNc1nc(Nc2cccc(C(C)=O)c2)ncc1Cl [Example 5]
- logP [3]: 1.49[a];
- logP [4]: 1.49[b]

Compound: COCCNc1nc(Nc2ccc(S(=O)(=O)N(C)C)cc2)ncc1Cl [Example 6]
- logP [3]: 1.9[a];
- logP [4]: 1.9[b]

Compound: COCCNc1nc(Nc2ccc(N3CCN(C(=O)OC(C)(C)C)CC3)cc2)ncc1Cl [Example 7]
- logP [3]: 2.05[a];
- logP [4]: 2.05[b]

Compound: COCC(C)Nc1nc(Nc2ccc(OC(C)C)cc2)ncc1Cl (stereo not shown) [Example 8]
- logP [3]: 1.69[a]

Compound: COCC(C)Nc1nc(Nc2ccc(C(C)C)cc2)ncc1Cl (stereo not shown) [Example 9]
- logP [3]: 2.38[a]

Compound: COCC(C)Nc1nc(Nc2cccc(Cl)c2)ncc1Cl (stereo not shown) [Example 10]
- logP [3]: 2.58[a]

Compound: COCCNc1nc(Nc2ccc(C(C)C)cc2)ncc1Cl [Example 11]
- logP [3]: 2.09[a]

Compound: COCCNc1nc(Nc2ccc(OC(C)C)cc2)ncc1Cl [Example 12]
- logP [3]: 1.78[a]

Compound: CCN(CC)c1ccc(Nc2ncc(Cl)c(NC(C)COC)n2)cc1 (stereo not shown) [Example 13]
- logP [3]: 1.16[a]

Compound: COCC(C)Nc1nc(Nc2cc(OC)cc(OC)c2)ncc1Cl (stereo not shown) [Example 14]
- logP [3]: 1.94[a]

Compound: COCC(C)Nc1nc(Nc2cccc(C(C)=O)c2)ncc1Cl (stereo not shown) [Example 15]
- logP [3]: 1.72[a]

Compound: COCC(C)Nc1nc(Nc2ccc(S(=O)(=O)N(C)C)cc2)ncc1Cl (stereo not shown) [Example 16]
- logP [3]: 2.25[a];
- logP [4]: 2.26[b]
- logP [a] (pH 2.3, 0.1% aqueous phosphoric acid and acetonitrile): 2.25

Compound: CCC(CO)Nc1nc(Nc2cccc(Cl)c2)ncc1Cl (stereo not shown) [Example 17]
- logP [3]: 1.96[a]

Compound: CCC(CO)Nc1nc(Nc2ccccc2)ncc1Cl (stereo not shown) [Example 18]
- logP [3]: 1.41[a]

Compound: CCC(CO)Nc1nc(Nc2cc(OC)cc(OC)c2)ncc1Cl (stereo not shown) [Example 19]
- logP [3]: 1.64[a]

Compound: CCC(CO)Nc1nc(Nc2cccc(C(C)=O)c2)ncc1Cl (stereo not shown) [Example 21]
- logP [3]: 1.53[a]

Compound: CCC(CO)Nc1nc(Nc2ccc(S(=O)(=O)N(C)C)cc2)ncc1Cl (stereo not shown) [Example 22]
- logP [3]: 1.83[a]

Compound: CCC(CO)Nc1nc(Nc2ccc(N3CCN(C(=O)OC(C)(C)C)CC3)cc2)ncc1Cl (stereo not shown) [Example 23]
- logP [3]: 2.02[a]

Compound: COCC(C)Nc1nc(Nc2cc(OC)c(OC)c(OC)c2)ncc1C(F)(F)F (stereo not shown) [Example 24]
- logP [4]: 2.46[b]

Compound: COCC(C)Nc1nc(Nc2ccccc2)ncc1C(F)(F)F (stereo not shown) [Example 25]
- logP [3]: 2.96[a];
- logP [4]: 2.74[b]
- logP [5]: 3.52[c];

Compound: CNc1nc(Nc2ccc(S(=O)(=O)N(C)C)cc2)ncc1Cl [Example 26]
- logP [3]: 1.61[a]

Compound: CN(C)c1nc(Nc2ccc(S(=O)(=O)N(C)C)cc2)ncc1Cl [Example 27]
- logP [3]: 2.49[a]

Compound: CN(C)c1nc(Nc2ccc(S(C)(=O)=O)cc2)ncc1Cl [Example 28]
- logP [3]: 1.98[a]

Compound: COCC(C)Nc1nc(Nc2cccc(S(=O)(=O)N3CCOCC3)c2)ncc1Cl (stereo not shown) [Example 29]
- logP [3]: 2.1[a];
- logP [4]: 2.04[b]

Compound: CSC[C@H](C)Nc1nc(Nc2ccc(S(=O)(=O)N(C)C)cc2)ncc1Cl [Example 30]
- logP [3]: 2.59[a]

Compound: COCC(C)Nc1nc(Nc2cccc(S(=O)(=O)N(C)C)c2)ncc1Cl (stereo not shown) [Example 31]
- logP [3]: 2.02[a];
- logP [4]: 2.18[b]

Compound: CCCCNc1nc(Nc2ccccc2)ncc1Cl [Example 32]
- logP [3]: 2.12[a]

Compound: CN(C)c1nc(Nc2ccccc2)ncc1Cl [Example 33]
- logP [3]: 1.78[a];
- logP [4]: 1.73[b]

Compound: CC(C)(C)Nc1nc(Nc2ccccc2)ncc1Cl [Example 34]
- logP [3]: 2.17[a]

Compound: CNc1nc(Nc2ccccc2)ncc1Cl [Example 35]
- logP [3]: 1.27[a]

Compound: CC(C)Nc1nc(Nc2ccccc2)ncc1Cl [Example 36]
- logP [3]: 1.77[a]

Compound: CSCC(C)Nc1nc(Nc2ccccc2)ncc1Cl (stereo not shown) [Example 37]
- logP [3]: 2.04[a]

Compound: COCC(C)Nc1nc(Nc2ccc(C(=O)OC)cc2)ncc1Cl (stereo not shown) [Example 38, Methyl 4-({5-chloro-4-[(1-methoxypropan-2-yl)amino]pyrimidin-2-yl}amino)benzene-carboxylate hydrochloride]
- chromatographic logP (method marker [c], footnote not given, read-out: logP): 3.05
- chromatographic logP (pH 2.3, method marker [a], footnote not given, read-out: logP): 2.31
- chromatographic logP [2]: 2.31

Compound: COC(=O)c1ccc(Nc2ncc(Cl)c(N(C)C)n2)cc1 [Example 39]
- logP [3]: 2.47[a];
- logP [5]: 3.3[c]

Compound: CCC(C)N(C)c1nc(Nc2ccccc2)ncc1Cl (stereo not shown) [Example 40]
- logP [3]: 2.85[a]

Compound: CCC(C)N(C)c1nc(Nc2cccc(C(C)=O)c2)ncc1Cl.Cl (stereo not shown) [Example 41]
- logP [3]: 2.88[a]

Compound: CC(=O)c1cccc(Nc2ncc(Cl)c(N(C)C)n2)c1.Cl [Example 42]
- logP [3]: 1.84[a]

Compound: CC(C)N(C)c1nc(Nc2cccc(S(=O)(=O)N(C)C)c2)ncc1Cl [Example 43]
- logP [3]: 2.96[a]

Compound: CN(C)c1nc(Nc2ccccc2)ncc1C#N [Example 44]
- logP [4]: 2.36[b]

Compound: CC(=O)c1cccc(Nc2ncc(Cl)c(N(C)C(C)C)n2)c1.Cl [Example 45]
- logP [3]: 2.5[a]

Compound: CC(C)N(C)c1nc(Nc2ccccc2)ncc1Cl.Cl [Example 46]
- logP [3]: 2.45[a]

Compound: CC(C)Nc1nc(Nc2cccc(S(=O)(=O)N(C)C)c2)ncc1Cl [Example 47]
- logP [3]: 2.08[a]

Compound: CC(C)Nc1nc(Nc2cccc(CN3CCN(C)C3=O)c2)ncc1Cl [Example 48]
- logP [4]: 1.54[b]
- logP [5]: 2.56[c];

Compound: CC(=O)c1cccc(Nc2ncc(Cl)c(NC(C)(C)C)n2)c1 [Example 49]
- logP [3]: 2.15[a]

Compound: CC(=O)c1cccc(Nc2ncc(Cl)c(NC(C)C)n2)c1.Cl [Example 50]
- logP [3]: 1.79[a]

Compound: CCC(C)N(C)c1nc(Nc2cccc(S(=O)(=O)N(C)C)c2)ncc1Cl (stereo not shown) [Example 52]
- logP [3]: 3.33[a]

Compound: Cl.OCCNc1nc(Nc2ccccc2)ncc1Cl [Example 53]
- logP [3]: 0.86[a]

Compound: COc1cc(Nc2ncc(Cl)c(NCCO)n2)cc(OC)c1.Cl [Example 54]
- logP [3]: 1.26[a]

Compound: COc1cc(Nc2ncc(Cl)c(NCCO)n2)cc(OC)c1OC.Cl [Example 55]
- logP [3]: 1.09[a]

Compound: CC(=O)c1cccc(Nc2ncc(Cl)c(NCCO)n2)c1.Cl [Example 56]
- logP [3]: 1.06[a]

Compound: CC(C)c1ccc(Nc2ncc(Cl)c(NCCO)n2)cc1.Cl [Example 58]
- logP [3]: 1.6[a]

Compound: CC(C)Oc1ccc(Nc2ncc(Cl)c(NCCO)n2)cc1.Cl [Example 59]
- logP [3]: 1.48[a]

Compound: CCN(CC)c1nc(Nc2ccccc2)ncc1Cl [Example 60]
- logP [3]: 2.29[a]

Compound: COCCNc1nc(Nc2ccccc2)ncc1Cl.Cl [Example 61]
- logP [3]: 1.41[a];
- logP [4]: 1.41[b]

Compound: COCCNc1nc(Nc2cc(OC)cc(OC)c2)ncc1Cl.Cl [Example 62]
- logP [3]: 1.67[a];
- logP [4]: 1.67[b]

Compound: COCC(C)Nc1nc(Nc2ccc(S(=O)(=O)N3CCOCC3)cc2)ncc1Cl (stereo not shown) [Example 63]
- logP [3]: 2.18[a]

Compound: CC(C)(C)Nc1nc(Nc2ccc(S(=O)(=O)N3CCOCC3)cc2)ncc1Cl [Example 64]
- logP [3]: 2.84[a]

Compound: CCC(C)Nc1nc(Nc2ccccc2)ncc1Cl.Cl (stereo not shown) [Example 65]
- logP [3]: 2.04[a]

Compound: C=CCNc1nc(Nc2ccccc2)ncc1Cl.Cl [Example 66]
- logP [3]: 1.68[a]

Compound: CSCCNc1nc(Nc2ccccc2)ncc1C#N [Example 67]
- logP [4]: 2.6[b]
